Laboratory results as given in PMC4787765 (Nucleic Acids Research, 2015).
Where two headings read alike, the source gives them in different places.

How the values were obtained:
eIF2Bα (cteIF2Bα) [1] = assay: ITC; format: binding, Thermochaetoides thermophila
eIF2Bα (cteIF2Bα) [2] = assay: ITC; format: binding, Thermochaetoides thermophila; remark: listed apart in the source
[3] = biological target: eIF2B(βδ)2 complex (Chaetomium thermophilum, untagged full-length subunits) (Chaetomium thermophilum); assay: SEC-MALS
[4] = biological target: Chaetomium thermophilum eIF2Bα (Chaetomium thermophilum); assay: SEC-MALS
eIF2Bα (cteIF2Bα) [5] = assay: ITC; format: binding, Thermochaetoides thermophila; remark: listed apart in the source

Compound `Nc1ccn([C@@H]2O[C@H](COP(=O)(O)O)[C@@H](O)[C@H]2O)c(=O)n1` [CMP] has a Kd (eIF2Bα (cteIF2Bα) [1]) of 65 µM.

`Nc1ncnc2c1ncn2[C@@H]1O[C@H](COP(=O)(O)O)[C@@H](O)[C@H]1O` [AMP] gave a Kd (eIF2Bα (cteIF2Bα) [2]) of 10 µM.

Work on “Chaetomium thermophilum eIF2Bα (natural protein)” yielded a stoichiometry N [3] of 1 and a stoichiometry N [4] of 2.

Compound `Nc1nc2c(ncn2[C@@H]2O[C@H](COP(=O)(O)O)[C@@H](O)[C@H]2O)c(=O)[nH]1` [GMP] has a Kd (eIF2Bα (cteIF2Bα) [5]) of 2900 nM.
